Results reported in the METLIN SMRT retention time set (Domingo-Almenara et al. 2019).

Experiment: gradient 5% acetonitrile 3 min, to 50% in 2 min, to 85% in 15 min, held 3 min, 100 µL/min
Settings: column: Zorbax Extend-C18 2.1 x 50 mm; eluents: water / acetonitrile, 0.1% formic acid
Summary of the method: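 Retention times come from adduct peaks that were picked computationally and then checked by hand. The standards, pure and pooled in mixtures of ~100 molecules, were run on a Zorbax Extend-C18 column (2.1 × 50 mm, 1.8 μm) at 100 μL/min with water and acetonitrile, each with 0.1% formic acid. Detection was by quadrupole time-of-flight mass spectrometry in positive and negative ionization mode, with a dead volume of 40 μL and a dwell volume of 900 μL.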

RP-LC retention time [s] | Structure (SMILES)
726 | Cc1nn(-c2ccc3nnc(C)n3n2)c(C)c1CCC(=O)NCCc1c[nH]c2ccccc12
748 | CC(=O)N1CCc2cc(N3CC(C(=O)NCc4ccccc4C(F)(F)F)CC3=O)ccc21 (configuration not stated)
859 | Cc1nn(Cc2ccc(C(=O)NCC3CC3)cc2)c(C)c1S(=O)(=O)N1CCCCC1
1230 | Cc1ccc(Nc2c(-c3ccc(Br)cc3)nc3cnccn23)c(Br)c1
858 | CC(C)n1ccc(C(=O)Nc2nnc(-c3cc(Cl)sc3Cl)o2)n1
934 | COc1ccc(Cl)cc1NC(=O)CN1C(=O)C2CCCCN2c2ccc(C(=O)N3CCCC3)cc21 (configuration not stated)
737 | CC(C)N1CC(c2nc(-c3ccccc3)no2)C2(CCCC2)C1 (configuration not stated)
674 | Cc1nnc2cc(N3CCN(S(=O)(=O)c4ccccc4F)CC3)cnn12
812 | CCCn1cc(CCNC(=O)Nc2ccccc2Cl)c2cccnc21
661 | COC(=O)c1c(NCc2c(C)noc2C)c2ccccc2[nH]c1=O
720 | CCOCCCNS(=O)(=O)c1cc(-c2cc(C)[nH]n2)sc1C
975 | CCOC(=O)c1c(S(=O)(=O)N2CCC(C(=O)NCc3cccc(C)c3)CC2)c(C)n(CC)c1C
957 | CC(C)CCNC(=O)c1ccc2c(c1)nc(Nc1n[nH]c3ccc(-c4ccccc4OC(F)(F)F)cc13)n2C1CCC(O)CC1 (configuration not stated)
726 | Clc1ccc(-c2nc(N3CCCC3)c3ccccc3n2)cc1
674 | CC1(C(=O)N2CC(F)(F)C[C@H]2c2nc(-c3ncccn3)no2)CC1
626 | CC(C)NC(=O)N1CCC(c2noc(-c3ccncc3)n2)C1 (configuration not stated)
721 | CC(C)c1ccc(S(=O)(=O)N2CCc3c(c(CN4CCCC4)nn3C)C2)cc1
595 | CCCNC(=O)C1CCCN(c2ccc(SCC(=O)NCc3ccc(OC)cc3)nn2)C1 (configuration not stated)
1050 | COc1ccccc1CNc1nc2ccccc2nc1NS(=O)(=O)c1cccs1

RP-LC retention time [s] | Structure (SMILES)
644 | CC(C)NC(=O)c1cc(C2CC2)[nH]n1
589 | CCc1cc(N2CCN(C(=O)c3cccc(C#N)c3)CC2)nc2nncn12
680 | COc1cccc(Nc2nc3ccncc3n(C(C)C)c2=O)c1
625 | Cc1nc2ccn(Cc3cccnc3)c(=O)c2cc1C(=O)NCCCc1ccco1
1120 | COc1ccc(C(=O)Nc2nccnc2C(=O)NCC2CCCCC2)cc1
1160 | CC1=NS(=O)(=O)N(Cc2ccccc2)C=C1C(=O)OCc1ccccc1Cl
966 | CCCNC(=O)Cn1cc(C(=O)Nc2ccc(C)c(C)c2)c(=O)c2ccc(C)nc21
682 | CCS(=O)(=O)N1CCCc2cc(C(=O)NCCOC)ccc21
673 | CC(=O)N(C1CCOCC1)C1CCN(C(=O)c2ccc(C)s2)CC1
643 | Cn1c(C(=O)NCc2ccccc2Cl)cc2ccncc21
1290 | Cc1ccc(Oc2nccnc2N2CCCC(C(=O)Nc3ccc(Br)c(C)c3)C2)cc1 (configuration not stated)
644 | CC(C)CCC(=O)N1CCC2(CC1)N(C)C(=O)CS2(=O)=O
787 | Cc1cccc(CNC(=O)c2c(C)sc3ccn(C)c(=O)c23)c1
608 | O=C(c1ccccc1)N1CCc2sc(C(=O)N3CCN(c4ccccn4)CC3)cc2C1
642 | Cc1ccn2c(NC(=O)CCc3ccccc3)c(-c3ccccc3)nc2c1
746 | CCOc1ccc(Nc2c(-c3cccc(O)c3)nc3cnccn23)cc1
590 | COC(=O)c1c(NCCO)c2cc(F)ccc2[nH]c1=O
838 | CN(CCCNC(=O)C1CCCN(c2ncc(-c3cccc(F)c3)cn2)C1)c1ccccc1 (configuration not stated)
